What was measured:
[1] = test system: PBF A2.2-specific CD8+ T cells; assay: LD/MLPC followed by tetramer-based frequency analysis; type: cell-based, human
From the text: Prior to frequency analysis and cytotoxicity assays, PBMC of patients were subjected to mixed lymphocyte peptide culture under limiting dilution conditions (LD/MLPC) according to the method described by Karanikas et al. with some modifications. LD/MLPC aims to seed at most one CTL precursor cell per well and induces proliferation of the precursor cell by subsequent mixed lymphocyte peptide culture. For this purpose, the appropriate number of PBMC and CD8^+ cells per well is considered to be 1 × 10^5–2 × 10^5 [17, 24].
PBMCs were used as a source of responder cells in the initial five subjects (Patients 1 and 2 and three healthy donors) and CD8^+ cells were used in the following three patients (Patients 3–5) [see Additional file 2].
PBMC obtained from peripheral blood samples (50 ml) of Patients 1 and 2 and three healthy donors were suspended in AIM-V (Invitrogen Corp., Carlsbad, CA) supplemented with 1% human serum (HS). These cells were incubated for 60 min at room temperature with peptide PBF A2.2 (50 μg/ml). Peptide-pulsed PBMC were seeded at 2 × 10^5 cells/200 μl/well into round-bottom 96-microwell plates in AIM-V with 10%HS, IL-2 (20 U/ml; a kind gift from Takeda Chemical Industries, Ltd., Osaka Japan) and IL-7 (10 ng/ml; R&D Systems, Minneapolis, Minnesota, USA), and incubated. On day 7, half of the medium was replaced with fresh AIM-V containing IL-2, IL-7 and the same peptides. The cell cultures were maintained by adding fresh AIM-V containing IL-2. On days 14–21, they were subjected to tetramer-based frequency analysis.
PBMC obtained from Patients 3–5 were separated into CD8^+ cells and CD8^- cells using magnetic anti-CD8 microbeads (Miltenyi Biotec, Gladbach, Germany). CD8^- cells were pulsed with the PBF A2.2 peptide for 60 min. Half of the CD8^- cells were cryopreserved at -80°C for the second stimulation. CD8^+ cells (1.0–2.1 × 10^5/well) and irradiated PBF A2.2 peptide-pulsed CD8^- cells (1–5 × 10^5/well) were cocultured in 48-well cell culture plates in 500 μl of AIM-V with 10%HS, IL-2 and IL-7. On day 7, the second stimulation was performed by adding irradiated peptide-pulsed CD8^- cells to each culture well in 500 μl of AIM-V with 10%HS, IL-2 and IL-7. On days 13–23, they were subjected to tetramer-based frequency analysis.
An FITC-conjugated HLA-A*0201/HIV tetramer (here termed the control tetramer) and a PE-conjugated HLA-A*0201/PBF A2.2 tetramer (A2/PBF A2.2 tetramer) were constructed by Medical & Biological Laboratories Co., Ltd. (Tokyo, Japan). PBMCs from patients were stimulated with the PBF A2.2 peptide by using the LD/MLPC procedure as described above. From each microwell containing 200 μl of the microculture pool, 100 μl was transferred to a V-bottom microwell and washed. To the spin-down pellets, the control tetramer and A2/PBF A2.2 tetramer (10 nM in 25 μl of PBS) were added in combination and incubated for 15 min at room temperature. Then a PE-Cy5-conjugated anti-CD8 antibody (eBioscience, San Diego, California, USA) was added (dilution of 1:30 in 25 μl of PBS containing the control tetramer and A2/PBF A2.2 tetramer) and incubated for another 15 min. The cells were washed in PBS twice, fixed with 0.5% formaldehyde, and analyzed by flow cytometry using FACScan and CellQuest software (Becton Dickinson, San Jose, California, USA). CD8^+ living cells were gated and the cells labeled with the A2/PBF A2.2 tetramer were referred to as tetramer-positive cells. Tetramer-positive cells in each well are theoretically derived from a single CTL precursor, regardless of the number (percentage) of tetramer-positive cells. Accordingly, the number of tetramer-positive wells represents the number of CTL precursors. The frequency of anti-PBF A2.2 CTLs was evaluated using the following calculation: (number of tetramer-positive wells)/[(total number of tested wells) × (initial number of CD8+ cells per well)].

[2] = target: HLA-A*0201 molecules (Homo sapiens, UniProt P04439, D140Y/D185E/D98H/E176V/E277Q/G131W/G231S/I119V/I121R/I166T/I218V/L300P/L318F/N151K/N90K/P208A/P217A/Q86G/Q94H/R138H/R169H/T345S); assay: T2 cell surface HLA class I stabilization assay; type: cell-based; settings: for HLA-peptide binding affinity (%MFI increase ± SD): peptide 50 μg/ml, T2 cells, anti-HLA-A2 mAb BB7.2 staining, triplicate, mean ± SD
[3] = test system: T2 cells
[4] = three tetramer-positive patients with osteosarcoma

Sequence	HLA-peptide binding affinity (%MFI increase ± SD) [2] [%MFI increase]	further results
MMAAMVLTSL [Peptide A2.5]	10.5 ± 12.0	
FETDPDPFL [Peptide A2.7]	8.2 ± 19.1	
GLVEQHSWM [Peptide A2.4]	1.8 ± 9.9	
FQPGQKVYV [Peptide A2.3]	2.7 ± 9.4	
WLLEQKLQV [Peptide A2.1]	38.8 ± 15.5	

Second part, led by results:

HLA-peptide binding affinity (%MFI increase ± SD) [2] [%MFI increase]	Sequence	further results
74.5 ± 6.6	ALPSFQIPV [Peptide A2.2]	Frequency of CTL precursors calculated as 2/5.4 × 10^6 ([1]; Patient 4, 36 wells at 1.5 × 10^5 CD8+ cells per well, tetramer analysis on day 21, Fig. 2): 3.7 × 10^-7; Patients in whom A2/PBF A2.2 tetramer-positive T cells were detected ([1]; five HLA-A*0201+ patients with PBF-positive osteosarcoma): three of the five patients; Frequencies of the PBF A2.2-specific CD8+ T cells, average ([1]; three healthy donors): 2 × 10^-7; Frequencies of the PBF A2.2-specific CD8+ T cells, range ([1]; three healthy donors): 1 × 10^-7 to 3 × 10^-7; Frequencies of the PBF A2.2-specific CD8+ T cells, average [1, 4]: 2 × 10^-6; Frequencies of the PBF A2.2-specific CD8+ T cells, range [1, 4]: 2 × 10^-7 to 5 × 10^-6; %MFI increase in peptide titration experiments ([2]; HLA class I stabilization assay at indicated concentrations, Fig. 1): dose-dependent increases of %MFI; %MFI increase compared among the peptides ([2]; HLA class I stabilization assay, ten PBF-derived peptides): highest %MFI increase among the peptides; Cytotoxicity of five CTL clones (1B1, 1D7, 1E1, 1F4, 1F7) against peptide-pulsed T2 cells [3]: All five CTL clones lysed PBF A2.2 peptide-pulsed T2 cells
4.4 ± 9.9	KVLRSIVGI [Peptide A2.10]	
10.2 ± 8.2	YQALPSFQI [Peptide A2.9]	
-1.5 ± 2.5	SMTGLPLSAL [Peptide A2.8]	
22.5 ± 9.6	FETDPDPFLL [Peptide A2.6]	

From PMC2702281, “HLA-A*0201-restricted CTL epitope of a novel osteosarcoma antigen, papillomavirus binding factor” (Journal of Translational Medicine, 2009)
